Experimental data from PMC5196007 (Journal of pharmaceutical and biomedical analysis, 2016).
Read-outs that look alike come from different tables or passages of the source.

Columns and labels:
[1] = Stability of analytes in whole blood samples; type: in vitro ADME, rat; details: n = 6
[2] = Pharmacokinetic study with co-administration of cocaine and alcohol in rats; type: in vivo, Male Sprague–Darley rats; details: 60 mg/kg cocaine IP, 30 min after 1 g/kg alcohol or saline IP, both groups
[3] = system: butyrylcholinesterase (BChE) and liver carboxyesterase-2 (CE-2); details: in humans; cited from earlier work
CE-1 = details: with alcohol co-administration, cited from earlier work
[4] = Bench top (4 hours, room temperature), high concentration 190–320 ng/ml (1 µM)
[5] = Bench top (4 hours, room temperature), low concentration 1.9–3.2 ng/ml (0.01 µM)
[6] = Bench top (4 hours, room temperature), medium concentration 95–160 ng/ml (0.5 µM)
[7] = Freeze-thaw (4 cycles), high concentration 190–320 ng/ml (1 µM)
[8] = Freeze-thaw (4 cycles), low concentration 1.9–3.2 ng/ml (0.01 µM)
[9] = Freeze-thaw (4 cycles), medium concentration 95–160 ng/ml (0.5 µM)
[10] = Long-term (−70°C, 4 months), high concentration 190–320 ng/ml (1 µM)
[11] = Long-term (−70°C, 4 months), low concentration 1.9–3.2 ng/ml (0.01 µM)
[12] = Long-term (−70°C, 4 months), medium concentration 95–160 ng/ml (0.5 µM)

Row | SMILES | Stability Bias (%) [1, 4] | Stability Bias (%) [1, 5] | Stability Bias (%) [1, 6] | Stability Bias (%) [1, 7] | Stability Bias (%) [1, 8] | Stability Bias (%) [1, 9] | Stability Bias (%) [1, 10] | Stability Bias (%) [1, 11] | Stability Bias (%) [1, 12] | highest blood concentration [2] | time of highest blood concentration after the injection of cocaine [2] | fraction of cocaine hydrolyzed to ecgonine methyl ester (EME) [3] | fraction of cocaine converted to cocaethylene through transesterification (CE-1; intravenous cocaine) | fraction of cocaine converted to cocaethylene through transesterification (CE-1; oral cocaine) | fraction of cocaine converted to cocaethylene through transesterification (CE-1; smoked cocaine)
1 | COC(=O)[C@H]1[C@@H](O)C[C@@H]2CC[C@H]1N2 [NEME, norecgonine methyl ester] | −2.2% | −14.3% | −1.5% | 0.1% | −12.8% | −5.4% | −8.7% | −13.0% | −1.7% | – | – | – | – | – | –
2 | COC(=O)[C@@H]1[C@H]2CC[C@@H](C[C@@H]1O)N2C [EME, ecgonine methyl ester] | 0.3% | −9.6% | 5.9% | 4.0% | 2.1% | 4.2% | 3.5% | −3.1% | 6.3% | – | – | – | – | – | –
3 | COC(=O)[C@H]1[C@@H](OC(=O)c2ccccc2)C[C@@H]2CC[C@H]1N2C [Cocaine] | −6.7% | 2.3% | 0.3% | −4.7% | 2.8% | −0.7% | −3.1% | −0.4% | 3.1% | ~ 2400 ng/ml | 20 min | approximately 40% | ~ 24% | ~ 34% | ~ 18%
4 | COC(=O)[C@H]1[C@@H](OC(=O)c2ccccc2)C[C@@H]2CC[C@H]1N2 [Norcocaine, norcocaine] | 0.6% | −1.1% | 3.5% | −1.2% | −1.0% | −0.2% | −1.4% | −2.9% | 2.2% | – | – | – | – | – | –
5 | CCOC(=O)[C@@H]1[C@H]2CC[C@@H](C[C@@H]1O)N2C [EEE, ecgonine ethyl ester] | 6.8% | 1.2% | −4.4% | 9.4% | −3.2% | −9.3% | −5.2% | −2.2% | −5.2% | – | – | – | – | – | –
6 | CCOC(=O)[C@@H]1C2CCC(C[C@@H]1OC(=O)c1ccccc1)N2C (stereo partly drawn) [Cocaethylene, cocaethylene] | 0.2% | 1.7% | −2.1% | −4.1% | 0.7% | −3.7% | −0.6% | 3.7% | −1.8% | – | – | – | – | – | –
7 | CCOC(=O)[C@H]1[C@@H](O)C[C@@H]2CC[C@H]1N2 [NEEE, norecgonine ethyl ester] | 3.7% | 1.4% | 2.4% | 6.5% | 1.2% | 3.3% | −11.9% | −1.3% | −0.2% | – | – | – | – | – | –
8 | CN1[C@H]2CC[C@@H]1[C@@H](C(=O)O)[C@@H](OC(=O)c1ccccc1)C2 [BE, benzoylecgonine] | 1.7% | −0.5% | 0.7% | 3.4% | −0.9% | 5.5% | 3.8% | −1.4% | 2.2% | – | – | – | – | – | –
9 | CCOC(=O)[C@H]1[C@@H](OC(=O)c2ccccc2)C[C@@H]2CC[C@H]1N2 [Norcocaethylene, norcocaethylene] | −2.2% | −0.2% | −0.9% | −6.4% | 0.1% | −4.4% | 2.8% | −1.0% | −1.3% | – | – | – | – | – | –
